The supplement of paper PMC10627819

Legend:
[1] = test system: B. subtilis 168; assay: fitness (endpoint OD595 vs no drug) (fraction); higher = more growth
Method in brief: (§1)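 Fitness was defined as the optical density at the transition into stationary phase relative to the robust mean of no-drug control wells. Values were capped at 1. Cultures were started at OD595 0.01 in 384-well plates (30 µl, or 55 µl for S. pneumoniae) in TSB, LB Lennox or CY at 37 °C. OD595 was recorded every 30 min over 14 h, with the first reading subtracted as background.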

[2] = test system: S. aureus Newman; assay: as above
Method in brief: as §1

[3] = test system: S. pneumoniae D39V; assay: as above
Method in brief: as §1

[4] = test system: S. aureus DSM 20231; assay: Bliss interaction score (quartile over a dose matrix) (fitness difference); higher = more antagonism (negative = synergy)
Method in brief: (§2)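 Growth in each well was taken as OD595 at entry into stationary phase. Dividing by the plate's robust no-drug mean and capping at 1 gave fitness, and single-drug fitness was inferred from the combination data. The Bliss score, observed minus product-expected fitness, is summarised by quartiles over technical, biological and donor/recipient replicates.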

[5] = test system: B. subtilis 168; assay: as above
Method in brief: as §2

[6] = test system: S. aureus Newman; assay: as above
Method in brief: as §2

[7] = test system: S. pneumoniae D39V; assay: as above
Method in brief: as §2
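Wherever Bliss interaction score (quartile over a dose matrix) is given: first quartile when negative (synergy) and third quartile when positive (antagonism).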

CCC[C@@H]1C[C@@H](C(=O)N[C@@H]([C@H]2O[C@H](SC)[C@H](O)[C@@H](O)[C@H]2O)[C@H](C)Cl)N(C)C1 [Clindamycin] + CC(C1CCC(C(O1)OC2C(CC(C(C2O)OC3C(C(C(CO3)(C)O)NC)O)N)N)N)NC [Gentamicin]
fitness, one replicate, main component drawn
Conditions | first compound 0.0039 µg/mL | first compound 0.0078 µg/mL | first compound 0.0156 µg/mL | first compound 0.0312 µg/mL | first compound 0.0625 µg/mL | first compound 0.125 µg/mL
[1], partner 0.0625 µg/mL | 0.962 | 0.911 | 0.828 | – | – | –
[1], partner 0.125 µg/mL | 0.995 | 0.938 | 0.839 | – | – | –
[1], partner 0.25 µg/mL | 0.94 | 0.867 | 0.791 | – | – | –
[2], partner 0.375 µg/mL | – | – | – | 0.709 | 0.55 | 0.138
[2], partner 0.75 µg/mL | – | – | – | 0.705 | 0.542 | 0.177
[2], partner 1.5 µg/mL | – | – | – | 0.576 | 0.254 | 0.119

main component drawn
Conditions | fitness
[1], first compound 0.0625 µg/mL, partner 0.0625 µg/mL | 0.52
[1], first compound 0.125 µg/mL, partner 0.0625 µg/mL | 0.397
[1], first compound 0.125 µg/mL, partner 0.25 µg/mL | 0.0596
[1], first compound 0.25 µg/mL, partner 0.25 µg/mL | 0.0604
[2], first compound 0.0312 µg/mL, partner 0.5 µg/mL | 0.839
[2], first compound 0.0312 µg/mL, partner 2 µg/mL | 0.988
[3], first compound 0.0125 µg/mL, partner 2 µg/mL | 0.781
[3], first compound 0.0125 µg/mL, partner 4 µg/mL | 0.812
[3], first compound 0.0125 µg/mL, partner 8 µg/mL | 0.768
[3], first compound 0.015 µg/mL, partner 2 µg/mL | 0.732
[3], first compound 0.015 µg/mL, partner 4 µg/mL | 0.698
[3], first compound 0.015 µg/mL, partner 8 µg/mL | 0.63
[3], first compound 0.025 µg/mL, partner 2 µg/mL | 0.528
[3], first compound 0.025 µg/mL, partner 4 µg/mL | 0.513
[3], first compound 0.025 µg/mL, partner 8 µg/mL | 0.454
[3], first compound 0.03 µg/mL, partner 2 µg/mL | 0.454
[3], first compound 0.03 µg/mL, partner 4 µg/mL | 0.425
[3], first compound 0.03 µg/mL, partner 8 µg/mL | 0.405
[3], first compound 0.05 µg/mL, partner 2 µg/mL | 0.239
[3], first compound 0.05 µg/mL, partner 4 µg/mL | 0.254
[3], first compound 0.05 µg/mL, partner 8 µg/mL | 0.224
[3], first compound 0.06 µg/mL, partner 2 µg/mL | 0.299
[3], first compound 0.06 µg/mL, partner 4 µg/mL | 0.249
[3], first compound 0.06 µg/mL, partner 8 µg/mL | 0.244

main component drawn
Conditions | Bliss interaction score
[4] | 0.0691
[5] | 0.192
[6] | 0.148
[7] | -0.0694

CCC[C@@H]1C[C@@H](C(=O)N[C@@H]([C@H]2O[C@H](SC)[C@H](O)[C@@H](O)[C@H]2O)[C@H](C)Cl)N(C)C1 [Clindamycin] + CN(C)c1cc(NC(=O)CNC(C)(C)C)c(O)c2c1C[C@H]1C[C@H]3[C@H](N(C)C)C(O)=C(C(N)=O)C(=O)[C@@]3(O)C(O)=C1C2=O [Tigecycline]
fitness, [1], one replicate
Conditions | first compound 0.0039 µg/mL | first compound 0.0078 µg/mL | first compound 0.0156 µg/mL | first compound 0.0625 µg/mL | first compound 0.125 µg/mL | first compound 0.25 µg/mL
partner 0.039 µg/mL | 0.986 | 0.866 | 0.862 | – | – | –
partner 0.078 µg/mL | ≥ 1 | 0.88 | 0.831 | – | – | –
partner 0.125 µg/mL | – | – | – | 0.809 | 0.656 | 0.44
partner 0.156 µg/mL | 0.906 | 0.81 | 0.908 | – | – | –
partner 0.25 µg/mL | – | – | – | 0.722 | 0.575 | 0.342
partner 0.5 µg/mL | – | – | – | 0.743 | 0.601 | 0.378

Conditions | fitness
[1], first compound 0.0625 µg/mL, partner 0.039 µg/mL | 0.596
[1], first compound 0.0625 µg/mL, partner 0.078 µg/mL | 0.537
[1], first compound 0.0625 µg/mL, partner 0.156 µg/mL | 0.538
[1], first compound 0.125 µg/mL, partner 0.039 µg/mL | 0.387
[1], first compound 0.125 µg/mL, partner 0.078 µg/mL | 0.38
[1], first compound 0.125 µg/mL, partner 0.156 µg/mL | 0.374
[1], first compound 0.25 µg/mL, partner 0.039 µg/mL | 0.378
[1], first compound 0.25 µg/mL, partner 0.078 µg/mL | 0.365
[1], first compound 0.25 µg/mL, partner 0.156 µg/mL | 0.369
[2], first compound 0.0312 µg/mL, partner 0.039 µg/mL | 0.708
[2], first compound 0.0312 µg/mL, partner 0.078 µg/mL | 0.715
[2], first compound 0.0312 µg/mL, partner 0.156 µg/mL | 0.709
[2], first compound 0.125 µg/mL, partner 0.039 µg/mL | 0.118
[2], first compound 0.125 µg/mL, partner 0.078 µg/mL | 0.112
[2], first compound 0.125 µg/mL, partner 0.156 µg/mL | 0.113
[3], first compound 0.0125 µg/mL, partner 0.325 µg/mL | 0.668
[3], first compound 0.0125 µg/mL, partner 0.65 µg/mL | 0.695
[3], first compound 0.0125 µg/mL, partner 1.3 µg/mL | 0.652
[3], first compound 0.015 µg/mL, partner 0.65 µg/mL | 0.753
[3], first compound 0.015 µg/mL, partner 1.3 µg/mL | 0.755
[3], first compound 0.015 µg/mL, partner 2.6 µg/mL | 0.815
[3], first compound 0.025 µg/mL, partner 0.325 µg/mL | 0.503
[3], first compound 0.025 µg/mL, partner 0.65 µg/mL | 0.461
[3], first compound 0.025 µg/mL, partner 1.3 µg/mL | 0.442
[3], first compound 0.03 µg/mL, partner 0.65 µg/mL | 0.653
[3], first compound 0.03 µg/mL, partner 1.3 µg/mL | 0.66
[3], first compound 0.03 µg/mL, partner 2.6 µg/mL | 0.673
[3], first compound 0.05 µg/mL, partner 0.325 µg/mL | 0.233
[3], first compound 0.05 µg/mL, partner 0.65 µg/mL | 0.2
[3], first compound 0.05 µg/mL, partner 1.3 µg/mL | 0.189
[3], first compound 0.06 µg/mL, partner 0.65 µg/mL | 0.551
[3], first compound 0.06 µg/mL, partner 1.3 µg/mL | 0.557
[3], first compound 0.06 µg/mL, partner 2.6 µg/mL | 0.539

Conditions | Bliss interaction score
[4] | -0.0949
[5] | -0.0489
[6] | -0.0653
[7] | -0.0934
